Results reported in patent EP0091328B1, “Trans-4-aminobenz(c,d)indol-5-ol derivatives, their salts, their preparation, their use as medicaments and compositions containing them” (priority 1982, dated 1983).
Structures can show the parent of a compound that is named as a salt.

How the values were obtained:
souris = test: Acute toxicity, lethal dose DL0 after oral administration; format: in vivo; conditions: mouse, maximal dose causing no mortality in 8 days
Excerpt: 4) Etude de la toxicité aiguë
On a évalué les doses létales DLo des différents composés testés après administration par voie orale chez la souris.
On appelle DLo la dose maximale ne provoquant aucune mortalité en 8 jours.

[1] = test system: rats mâles de souche WISTAR; test: Hypotensive activity in anaesthetised rats (carotid arterial pressure, intravenous administration); format: in vivo; conditions: anaesthetised Wistar rat, versus initial control pressure
Experimental: 1) Détermination de l'activité hypotensive
L'activité hypotensive a été étudiée sur des rats mâles de souche WISTAR pesant 300 g environ et anesthésiés au nembutal (50 mg/kg par voie intraveineuse).
Le produit testé a été administré par voie intraveineuse dans la veine jugulaire.
La pression artérielle càrotidienne a été mesurée avant et après administration du produit testé.
Le tableau ci-après indique les variations exprimées en pourcentage de la pression artérielle après- administration du produit testé par rapport à la pression artérielle témoin initiale.

| Compound | DL0 (souris) [mg/kg] | Variation % de la pression artérielle 30 minutes après l'administration ([1]; dose 0,1 mg/kg) [%] | Variation % de la pression artérielle 30 minutes après l'administration ([1]; dose 1 mg/kg) [%] |
| --- | --- | --- | --- |
| N[C@@H]1CC2CNc3cccc(c32)[C@H]1O (mixture of isomers) [Exemple 1, dichlorhydratede trans 4RS 4-amino 1,2,2a.3,4,5-hexahydro benz(c,d) indol-5-0l] | >400 |  |  |
| CN[C@@H]1CC2CNc3cccc(c32)[C@H]1O (mixture of isomers) [Exemple 2, Fumarate neutrede trans 4RS 4-(méthylamino) 1,2,2a,3,4,5-hexahydro benz(c,d) indol-5-0l] | >800 |  |  |
| CCN[C@@H]1CC2CNc3cccc(c32)[C@H]1O (mixture of isomers) [Exemple 3, Fumarate neutrede trans 4RS 4-(éthylamino) 1,2,2a,3,4,5-hexahydro benz(c,d) indol-5-ol] | >400 |  |  |
| CN[C@@H]1Cc2c[nH]c3cccc(c23)[C@H]1O (racemic) [Exemple 7, Chlorhydratede trans 4RS 4-(méthylamino) 1,3,4,5-tétrahydro benz(c,d) indol-5-0l] | >400 |  |  |
| CCN[C@@H]1Cc2c[nH]c3cccc(c23)[C@H]1O (racemic) [Exemple 8, Chlorhydratede trans 4RS 4-(éthylamino) 1,3,4,5-tétrahydro benz(c,d) indol-5-0l] | 80 | -13 |  |
| CCCN[C@@H]1Cc2c[nH]c3cccc(c23)[C@H]1O (racemic) [Exemple 9, Chlorhydratede trans 4RS 4-(propylamino) 1,3,4,5-tétrahydro benz(c,d) indol-5-0l] | 60 |  | -30 |
| CC(C)N[C@@H]1Cc2c[nH]c3cccc(c23)[C@H]1O (racemic) [Exemple 10, Chlorhydratede trans 4RS 4-(isopropylamino) 1,3,4,5-tétrahydro benz(c,d) indol-5-0l] | 100 |  | -24 |
| trans 4RS 4-(isopropylamino) 1,,2a,3,4,5-hexahydrobenz(c,d) indol-5-ol [Exemple 5] | 200 |  |  |
| trans 4RS 4-(propylamino) 1,2,2a,3,4,5-hexahydrobenz(c,d) indol-5--ol [Exemple 4] | 200 |  |  |
